Measurements from ChEMBL document CHEMBL3045916, “Synthesis, characterization, biological evaluation and in silico screening of oxadiazinanones” (Med Chem Res, 2013).
In brackets after ≈: the same amount, converted by molar mass.

Columns and labels:
[1] = system: Radical scavenging activity; test: Antioxidant activity assessed as DPPH radical scavenging activity at 4 ug/mL after 30 min by spectrophotometric analysis relative to control; assay type: functional
[2] = system: Talaromyces marneffei; test: Fungicidal activity against Talaromyces marneffei after 48 hr; assay type: functional
[3] = system: Radical scavenging activity; test: Antioxidant activity assessed as DPPH radical scavenging activity after 30 min by spectrophotometric analysis; assay type: functional
[4] = system: Pseudomonas aeruginosa; test: Antibacterial activity against Pseudomonas aeruginosa ATCC 9029 assessed as growth inhibition after 24 hr by disk diffusion method; assay type: functional
[5] = system: Radical scavenging activity; test: Antioxidant activity assessed as DPPH radical scavenging activity at 10 ug/mL after 30 min by spectrophotometric analysis relative to control; assay type: functional
[6] = system: Streptococcus pyogenes; test: Bactericidal activity against Streptococcus pyogenes clinical isolate after 18 to 24 hr; assay type: functional
[7] = system: Radical scavenging activity; test: Antioxidant activity assessed as DPPH radical scavenging activity at 2 ug/mL after 30 min by spectrophotometric analysis relative to control; assay type: functional
[8] = system: Staphylococcus aureus; test: Antibacterial activity against methicillin-resistant Staphylococcus aureus assessed as growth inhibition after 24 hr by macro-dilution method; assay type: functional
[9] = system: Aspergillus fumigatus; test: Fungicidal activity against Aspergillus fumigatus after 48 hr; assay type: functional
[10] = system: Aspergillus fumigatus; test: Antifungal activity against Aspergillus fumigatus assessed as growth inhibition after 48 hr by macro-dilution method; assay type: functional
[11] = system: Klebsiella pneumoniae; test: Antibacterial activity against Klebsiella pneumoniae clinical isolate assessed as growth inhibition after 24 hr by disk diffusion method; assay type: functional
[12] = system: Escherichia coli; test: Antibacterial activity against Escherichia coli ATCC 8739 assessed as growth inhibition after 24 hr by macro-dilution method; conditions: ATCC 8739, 24 h
[13] = system: Staphylococcus aureus; test: Bactericidal activity against methicillin-resistant Staphylococcus aureus after 18 to 24 hr; assay type: functional
[14] = system: Candida albicans; test: Antifungal activity against Candida albicans ATCC 90028 assessed as growth inhibition after 48 hr by agar disk diffusion method; assay type: functional
[15] = system: Talaromyces marneffei; test: Antifungal activity against Talaromyces marneffei assessed as growth inhibition after 48 hr by macro-dilution method; assay type: functional
[16] = system: Streptococcus pyogenes; test: Antibacterial activity against Streptococcus pyogenes clinical isolate assessed as growth inhibition after 24 hr by disk diffusion method; assay type: functional
[17] = system: Talaromyces marneffei; test: Antifungal activity against Talaromyces marneffei assessed as growth inhibition after 48 hr by agar disk diffusion method; assay type: functional
[18] = system: Candida albicans; test: Fungicidal activity against Candida albicans ATCC 90028 after 48 hr; assay type: functional; conditions: ATCC 90028, 48 h
[19] = system: Trichophyton mentagrophytes; test: Fungicidal activity against Trichophyton mentagrophytes after 48 hr; assay type: functional
[20] = system: Pseudomonas aeruginosa; test: Antibacterial activity against Pseudomonas aeruginosa ATCC 9029 assessed as growth inhibition after 24 hr by macro-dilution method; assay type: functional; conditions: ATCC 9029, 24 h
[21] = system: Radical scavenging activity; test: Antioxidant activity assessed as DPPH radical scavenging activity at 8 ug/mL after 30 min by spectrophotometric analysis relative to control; assay type: functional
[22] = system: Trichophyton mentagrophytes; test: Antifungal activity against Trichophyton mentagrophytes assessed as growth inhibition after 48 hr by agar disk diffusion method; assay type: functional
[23] = system: Streptococcus pyogenes; test: Antibacterial activity against Streptococcus pyogenes clinical isolate assessed as growth inhibition after 24 hr by macro-dilution method; assay type: functional
[24] = system: Radical scavenging activity; test: Antioxidant activity assessed as DPPH radical scavenging activity at 6 ug/mL after 30 min by spectrophotometric analysis relative to control; assay type: functional
[25] = system: Escherichia coli; test: Antibacterial activity against Escherichia coli ATCC 25922 assessed as growth inhibition after 24 hr by disk diffusion method; assay type: functional
[26] = system: Pseudomonas aeruginosa; test: Bactericidal activity against Pseudomonas aeruginosa ATCC 9029 after 18 to 24 hr; assay type: functional
[27] = system: Aspergillus fumigatus; test: Antifungal activity against Aspergillus fumigatus assessed as growth inhibition after 48 hr by agar disk diffusion method; assay type: functional
[28] = system: Escherichia coli; test: Bactericidal activity against Escherichia coli ATCC 25922 after 18 to 24 hr; assay type: functional
[29] = system: Klebsiella pneumoniae; test: Bactericidal activity against Klebsiella pneumoniae clinical isolate after 18 to 24 hr; assay type: functional
[30] = system: Trichophyton mentagrophytes; test: Antifungal activity against Trichophyton mentagrophytes assessed as growth inhibition after 48 hr by macro-dilution method; assay type: functional
[31] = system: Klebsiella pneumoniae; test: Antibacterial activity against Klebsiella pneumoniae clinical isolate assessed as growth inhibition after 24 hr by macro-dilution method; assay type: functional
[32] = system: Candida albicans; test: Antifungal activity against Candida albicans ATCC 90028 assessed as growth inhibition after 48 hr by macro-dilution method; assay type: functional; conditions: ATCC 90028, 48 h
[33] = system: Staphylococcus aureus; test: Antibacterial activity against methicillin-resistant Staphylococcus aureus assessed as growth inhibition after 24 hr by disk diffusion method; assay type: functional

Question: Which Activity [1] does the source give for `CC1(c2ccc(O)cc2O)NNC(=O)CO1` (stereo unspecified) here?
Answer: 30.2%

Question: What about the MFC [2] of the same molecule?
Answer: > 100 µg/mL

Question: What about the IC50 [3] of the same molecule?
Answer: 6.28 µg/mL (≈ 28 µM)

Question: What about the “diameter of the inhibition zone (DIZ)” value [4] of the same molecule?
Answer: 24.4 mm

Question: What about the Activity [5] of the same molecule?
Answer: 81.1%

Question: And the MBC [6]?
Answer: 100 µg/mL (≈ 446 µM)

Question: And the Activity [7]?
Answer: 15.7%

Question: What about the MIC [8] of the same molecule?
Answer: 50 µg/mL (≈ 223 µM)

Question: What about the MFC [9] of the same molecule?
Answer: 100 µg/mL (≈ 446 µM)

Question: And the MIC [10]?
Answer: 50 µg/mL (≈ 223 µM)

Question: What about the “diameter of the inhibition zone (DIZ)” value [11] of the same molecule?
Answer: 14.1 mm

Question: And the MIC [12]?
Answer: 50 µg/mL (≈ 223 µM)

Question: What about the MBC [13] of the same molecule?
Answer: 100 µg/mL (≈ 446 µM)

Question: And the “diameter of the inhibition zone (DIZ)” value [14]?
Answer: 20.2 mm

Question: What about the MIC [15] of the same molecule?
Answer: 50 µg/mL (≈ 223 µM)

Question: And the “diameter of the inhibition zone (DIZ)” value [16]?
Answer: 18.1 mm

Question: What about the “diameter of the inhibition zone (DIZ)” value [17] of the same molecule?
Answer: 11.1 mm

Question: And the MFC [18]?
Answer: 100 µg/mL (≈ 446 µM)

Question: And the MFC [19]?
Answer: 100 µg/mL (≈ 446 µM)

Question: What about the MIC [20] of the same molecule?
Answer: 50 µg/mL (≈ 223 µM)

Question: What about the Activity [21] of the same molecule?
Answer: 64%

Question: And the “diameter of the inhibition zone (DIZ)” value [22]?
Answer: 14.1 mm

Question: And the MIC [23]?
Answer: 50 µg/mL (≈ 223 µM)

Question: What about the Activity [24] of the same molecule?
Answer: 49%

Question: And the “diameter of the inhibition zone (DIZ)” value [25]?
Answer: 17.2 mm

Question: And the MBC [26]?
Answer: > 100 µg/mL

Question: And the “diameter of the inhibition zone (DIZ)” value [27]?
Answer: 16.2 mm

Question: What about the MBC [28] of the same molecule?
Answer: 100 µg/mL (≈ 446 µM)

Question: What about the MBC [29] of the same molecule?
Answer: 100 µg/mL (≈ 446 µM)

Question: What about the MIC [30] of the same molecule?
Answer: 50 µg/mL (≈ 223 µM)

Question: What about the MIC [31] of the same molecule?
Answer: 50 µg/mL (≈ 223 µM)

Question: What about the MIC [32] of the same molecule?
Answer: 50 µg/mL (≈ 223 µM)

Question: What about the “diameter of the inhibition zone (DIZ)” value [33] of the same molecule?
Answer: 17.1 mm

Question: Which MFC [2] does the source give for `C[C@@H]1[C@H](O)[C@@H](C)/C=C/C=C/C=C/C=C/C=C/C=C/C=C/[C@H](O[C@@H]2O[C@H](C)[C@@H](O)[C@H](N)[C@@H]2O)C[C@@H]2O[C@](O)(C[C@@H](O)C[C@@H](O)[C@H](O)CC[C@@H](O)C[C@@H](O)CC(=O)O[C@H]1C)C[C@H](O)[C@H]2C(=O)O` [AMPHOTERICIN B] here?
Answer: 25 µg/mL (≈ 27.1 µM)

Question: And the MFC [9]?
Answer: 25 µg/mL (≈ 27.1 µM)

Question: And the MIC [10]?
Answer: 12.5 µg/mL (≈ 13.5 µM)

Question: What about the “diameter of the inhibition zone (DIZ)” value [14] of the same molecule?
Answer: 30.5 mm

Question: What about the MIC [15] of the same molecule?
Answer: 12.5 µg/mL (≈ 13.5 µM)

Question: What about the “diameter of the inhibition zone (DIZ)” value [17] of the same molecule?
Answer: 21.5 mm

Question: And the MFC [18]?
Answer: 25 µg/mL (≈ 27.1 µM)

Question: What about the MFC [19] of the same molecule?
Answer: 25 µg/mL (≈ 27.1 µM)

Question: What about the “diameter of the inhibition zone (DIZ)” value [22] of the same molecule?
Answer: 23.5 mm

Question: What about the “diameter of the inhibition zone (DIZ)” value [27] of the same molecule?
Answer: 26.5 mm

Question: And the MIC [30]?
Answer: 6.25 µg/mL (≈ 6.76 µM)

Question: And the MIC [32]?
Answer: 6.25 µg/mL (≈ 6.76 µM)

Question: Which results are given for `O=C(O)c1cn(C2CC2)c2cc(N3CCNCC3)c(F)cc2c1=O` [CIPROFLOXACIN]?
Answer: diameter of the inhibition zone (DIZ) [4]: 31.5 mm; diameter of the inhibition zone (DIZ) [25]: 27.5 mm; diameter of the inhibition zone (DIZ) [33]: 21 mm

Question: `CC1(c2ccc(O)cc2)NNC(=O)CO1` (stereo unspecified) was tested. Which Activity [1] did it give?
Answer: 25.1%

Question: What about the MFC [2] of the same molecule?
Answer: 100 µg/mL (≈ 480 µM)

Question: And the IC50 [3]?
Answer: 8.02 µg/mL (≈ 38.5 µM)

Question: And the “diameter of the inhibition zone (DIZ)” value [4]?
Answer: 24.4 mm

Question: And the Activity [5]?
Answer: 62.4%

Question: And the MBC [6]?
Answer: 50 µg/mL (≈ 240 µM)

Question: And the Activity [7]?
Answer: 11.9%

Question: What about the MIC [8] of the same molecule?
Answer: 25 µg/mL (≈ 120 µM)

Question: What about the MFC [9] of the same molecule?
Answer: 100 µg/mL (≈ 480 µM)

Question: What about the MIC [10] of the same molecule?
Answer: 50 µg/mL (≈ 240 µM)

Question: And the “diameter of the inhibition zone (DIZ)” value [11]?
Answer: 14.6 mm

Question: And the MIC [12]?
Answer: 50 µg/mL (≈ 240 µM)

Question: And the MBC [13]?
Answer: 50 µg/mL (≈ 240 µM)

Question: And the “diameter of the inhibition zone (DIZ)” value [14]?
Answer: 22.4 mm

Question: What about the MIC [15] of the same molecule?
Answer: 50 µg/mL (≈ 240 µM)

Question: And the “diameter of the inhibition zone (DIZ)” value [16]?
Answer: 19.3 mm

Question: What about the “diameter of the inhibition zone (DIZ)” value [17] of the same molecule?
Answer: 15.1 mm

Question: What about the MFC [18] of the same molecule?
Answer: 100 µg/mL (≈ 480 µM)

Question: What about the MFC [19] of the same molecule?
Answer: 50 µg/mL (≈ 240 µM)

Question: What about the MIC [20] of the same molecule?
Answer: 25 µg/mL (≈ 120 µM)

Question: What about the Activity [21] of the same molecule?
Answer: 49%

Question: What about the “diameter of the inhibition zone (DIZ)” value [22] of the same molecule?
Answer: 16.3 mm

Question: And the MIC [23]?
Answer: 25 µg/mL (≈ 120 µM)

Question: What about the Activity [24] of the same molecule?
Answer: 37.2%

Question: And the “diameter of the inhibition zone (DIZ)” value [25]?
Answer: 18.4 mm

Question: What about the MBC [26] of the same molecule?
Answer: 100 µg/mL (≈ 480 µM)

Question: And the “diameter of the inhibition zone (DIZ)” value [27]?
Answer: 19.4 mm

Question: And the MBC [28]?
Answer: 100 µg/mL (≈ 480 µM)

Question: And the MBC [29]?
Answer: 50 µg/mL (≈ 240 µM)

Question: What about the MIC [30] of the same molecule?
Answer: 25 µg/mL (≈ 120 µM)

Question: What about the MIC [31] of the same molecule?
Answer: 25 µg/mL (≈ 120 µM)

Question: What about the MIC [32] of the same molecule?
Answer: 25 µg/mL (≈ 120 µM)

Question: And the “diameter of the inhibition zone (DIZ)” value [33]?
Answer: 18.3 mm
